# In US20130243741A1, “RENILLA/GAUSSIA TRANSFECTED CELLS AS A LIGHT SOURCE FOR IN-SITU PHOTODYNAMIC THERAPY OF CANCER” (KANSAS STATE UNIVERSITY RESEARCH FOUNDATION, priority 2010, published 2013):
# Assays:
# [1] = tested on: 4T1luc2 breast cancer tumors; assay: Deep-tissue PDT treatment of metastatic 4T1 breast cancer in mice; type: in vivo, BALB C mice; conditions: DFO 300 mg/kg i.p.; p-value: 0.65
# Protocol: In this Example, PDT using in-situ generation of light was used to treat metastatic breast cancer in BALB C mice. ALA was used as the only photosensitizer/prodrug, and DFO was used as the iron chelator. The mice were divided into three treatment groups as follows. On Day 0, the mice were inoculated with 4T1luc2 breast cancer cells (100,000/mouse, i.v.). On Day 3, 25 million NSCs were plated as described above for transfection. On Day 4, the cells were transfected with Glue. On Day 5, IVIS imaging with D-luciferin was carried out in the morning to determine tumor size and stratification of the mice. In the afternoon, the mice in Groups 2 and 3 were injected with the transfected cells (1 million/mouse). On Day 7, DFO was administered i.p. (300 mg/kg), as described above. On Day 8, the photosensitizing agent, ALA, was injected i.p. (100 mg/kg). Four hours later, cyclodextrin-complexed coelenterazine was administered i.v. (100 μg) into the tail vein of each mouse. The ALA/coelenterazine procedure was repeated on Day 9, and then on Day 10. The control groups were injected with PBS.
# [2] = cited from earlier work
# [3] = tested on: B16F10 mouse melanoma cells; assay: LED/PDT irradiation experiment with MTT cell proliferation readout; type: cell-based; conditions: no irradiation, RuC2 at 8×10^−5 M
# Protocol: LED-irradiation experiments employing RL5-B12120 Superbright LED's, (Qmax=470 nm, light output 0.0114±0.0008 W) and a light-attenuation system consisting of a series of parallel optical filters was performed. After trypsinization, B16F10 mouse melanoma cells were counted using a hemacytometer and the trypan blue exclusion method, and plated in tissue culture plates (TPP brand, Midwest Scientific). Four hours post-plating, RuC2, TCPP, or a 1:1 mixture of RuC2 and TCPP was added to the plates, with the 1:1 mixture containing each agent at half their respective concentrations to permit comparisons at the same molar concentrations of PDT-agents. The cells were then stored in the dark for 24 hours. Next, the cells were irradiated with high or low intensity of LED light for 45 min. Twenty-four hours post-radiation, MTT cell proliferation reagent (thiazolyl blue) was added to the cells, which were then incubated four hours. Next, SDS-solubilization buffer was added and the cells were incubated for 12 hours. The plates were then read using a plate reader (Spectramax 190) at 550 nm and 690 nm (background establishment).
# Redox potentials of RuC2 = type: physicochemical
smiles,measurement,setting,value
"CC(=O)N(O)CCCCCNC(=O)CCC(=O)N(O)CCCCCNC(=O)CCC(=O)N(O)CCCCCN [DFO, deferoxamine]",effect of the iron chelator on tumor growth,[1],mild effect in suppressing tumor growth
"O=c1c(Cc2ccc(O)cc2)nc2c(Cc3ccccc3)[nH]c(-c3ccc(O)cc3)cn1-2 [coelenterazine, 2-(4-hydroxybenzyl)-6-(4-hydroxyphenyl)-8-(phenylmethyl)imidazo[1,2-a]pyrazin-3(7H)-one]",long-term stability,[2]; commercially available material,not long-term stable
same,water solubility,[2]; native form,low
"O=C(O)CC[n+]1ccc(-c2ccnc(-c3cc(-c4cc[n+](CCC(=O)O)cc4)ccn3)c2)cc1.O=C(O)CC[n+]1ccc(-c2ccnc(-c3cc(-c4cc[n+](CCC(=O)O)cc4)ccn3)c2)cc1.O=C(O)CC[n+]1ccc(-c2ccnc(-c3cc(-c4cc[n+](CCC(=O)O)cc4)ccn3)c2)cc1.[Cl-].[Cl-].[Cl-].[Cl-].[Cl-].[Cl-].[Cl-].[Cl-].[Ru+2] [RuC2, Tris(N,N′″-bis(2-carboxyethyl)-4,4′:2,2″:4″,4′″-Quaterpyridine-N′N″-dium-N′,N′″) ruthenium(II)octachloride]",growth inhibition in the absence of irradiation,[3],approx. 20%
same,E0 Ru^2+/1+,Redox potentials of RuC2,−0.477 V
same,photochemical reduction potential E0*Ru^2+/1+,Redox potentials of RuC2,1.670 V
same,oxidation potential E0 Ru^3+/2,"Redox potentials of RuC2; vs. SHE, pH=7.0",1.537 V
"O=C(O)c1ccc(-c2c3nc(c(-c4ccc(C(=O)O)cc4)c4ccc([nH]4)c(-c4ccc(C(=O)O)cc4)c4nc(c(-c5ccc(C(=O)O)cc5)c5ccc2[nH]5)C=C4)C=C3)cc1 [TCPP, tetrakis-4-carboxyphenyl-porphyrin]",growth inhibition in the absence of irradiation,[3],zero
